Legend:
[1] = tested on: radiation-induced mucositis mouse model; test: Radiation-induced mucositis mouse model: viability, body weight, intestinal functions; type: in vivo, C57BL/6(H-2k) mice; conditions: 1100 cGy radiation, compared to group not treated
Description: NecroX-7 ((tetrahydropyran-4-yl)-[2-phenyl-5-(1,1-dioxo-thiomorpholine-4-yl)methyl-1H-indole-7-yl]amine) was obtained from LG Life Sciences, Ltd. 7 week- to 9 week-old C57BL/6(H-2k) mice were used as an animal model, and irradiated with 1,100 cGy whole-body radiation to induce damage to the intestinal mucosa, thereby completing the establishment of a mucositis model. Effects of NecroX-7 administered on such a mucositis model were analyzed by comparison in terms of viability, body weight, and intestinal functions.
(A) C57BL/6(H-2k) mice were irradiated with strong radiation 1100 cGy (radiation source: X-ray Mevatron MXE-2) at a dose rate of 1 Gy/min to induce mucositis. NecroX-7 was administered five times at a dose of 0.3 mg/kg or 3 mg/kg or 30 mg/kg and the results were compared.
Induction of intestinal mucositis by radiation causes side effects such as intestinal hemorrhaging and fecal incontinence. Thus, in the present experiment, a mucositis model was established by irradiating high-dose radiation of 1100 cGy, and NecroX-7 was treated total five times and the NecroX-7 treated group was compared to a group not treated with NecroX-7. A protective effect of NecroX-7 with respect to radiation-induced intestinal mucositis was examined.

[2] = tested on: intestinal tissue of radiation-induced mucositis mice; test: H&E staining of intestinal tissue, radiation-induced mucositis; type: in vivo; conditions: 30 mg/kg NecroX-7, FIG. 3
[3] = tested on: intestinal tissue of radiation-induced mucositis mice; test: Cell proliferation (bromodeoxyuridine) by IHC staining of intestinal tissue; type: in vivo; conditions: 30 mg/kg NecroX-7, unlike a control, FIG. 4
Description: Cell proliferation (bromodeoxyuridine) was confirmed by IHC staining. Before obtaining mouse tissues, mice were each injected with […] of a BrDU labeling reagent (5-bromo-2′-deoxyuridine and 5-fluoro-2′-deoxyuridine) and intestinal tissue was extracted within 2 hours to prepare paraffin blocks. 4 μm continuous sections were obtained from paraffin-embedded tissue, treated with xylene three times to remove paraffin, and then rinsed stepwise in 95%, 90% and 70% ethanol. After removing endogenous peroxidase from 0.3% hydrogen peroxide, the sections were treated with goat serum for 30 minutes. A primary antibody was diluted in PBS containing 3% BSA according to the manufacturer's instructions and then maintained for 1 hour to induce a reaction therebetween. […] The cells were maintained in 3 μg/ml HRP streptoavidin for 30 minutes, developed color with DAB and hydrogen peroxide, and then were subjected to contrast staining with Mayer's hematoxylin or 1% methyl green.

tumor cells = test: MTT assay of irradiated tumor cells; type: cell-based; conditions: 800 cGy radiation; NecroX-7 according to doses; 3 days incubation; FIG. 5
Description: (§1) Mucositis is a general side effect caused by radiation or chemotherapy for tumor treatment. Thus, to confirm the efficacy of a mucositis therapeutic agent, an effect thereof on tumor proliferation should be evaluated. Normal cells and tumor cells were irradiated with 800 cGy radiation, treated with NecroX-7 according to doses, and inoculated on a 96-well plate, incubated at 37[…] and 5% CO2 for 3 days, and then cell proliferation was confirmed by MTT assay. After incubation for 3 days, an MTT solution was added thereto and a reaction was allowed to occur therein for 3 hours, and the absorbance thereof was measured at […].

normal cells = test: MTT assay of irradiated normal cells; type: cell-based; conditions: 800 cGy radiation; NecroX-7 according to doses; 3 days incubation; FIG. 5
Description: as §1

[4] = tested on: intestinal epithelial cells (IEC-6); test: MTS assay of IEC-6 cell proliferation in normal environments; type: cell-based; conditions: no radiation, 5, 10, 20, 40 μM for 30 minutes, measured after 2 days
Description: To examine an effect of NecroX-7 on IEC-6 cell proliferation ability in normal environments, IEC-6 cells were treated with NecroX-7 at each concentration (5 μM, 10 μM, 20 μM, and 40 μM) for 30 minutes, the media were replaced and, after 2 days, the viability of the IEC-6 cells was measured by MTS (3-(4,5-dimethylthiazol-2-yl)-5-(3-carboxymethoxyphenyl)-2-(4-sulfophenyl)-2H-tetrazolium) assay.

[5] = tested on: intestinal epithelial cells (IEC-6); test: MTS assay of IEC-6 cells after irradiation; type: cell-based; conditions: 20 μM and 40 μM NecroX-7 for 30 minutes; 2 days after radiation irradiation; FIG. 6
Description: To investigate an effect of NecroX-7 on cell proliferation ability after irradiation, the IEC-6 cells were treated with NecroX-7, for 30 minutes, according to concentration, the media were replaced, and then MTS assay was performed thereon 2 days after radiation irradiation.

[6] = tested on: mitochondrial ROS in intestinal epithelial cells (IEC-6); test: Mitochondrial ROS by CM-H2ROS staining after radiation; type: cell-based; conditions: IEC-6 cells after radiation; FIG. 6
[7] = tested on: anticancer drug-induced mucositis mouse model; test: Anticancer drug (5-FU)-induced mucositis mouse model: viability, body weight; type: in vivo, C57BL/6(H-2k) mice; conditions: 50 mg/kg 5-FU i.p. five times; NecroX-7 intravenously five times at 0.3, 3 or 30 mg/kg; compared to group not treated; FIG. 7
Description: 7 week- to 9 week-old C57BL/6(H-2k) mice were used as an animal model, and injected intraperitoneally with 50 mg/kg of 5-fluorouracil (5-FU) every day for 5 days to induce oral and intestinal mucosal damage, thereby completing the establishment of a mucositis model. Effects of NecroX-7 administered on such a mucositis model were analyzed by comparison in terms of viability, body weight, and intestinal functions.
To induce oral and intestinal mucositis, the C57BL/6(H-2k) mice were intraperitoneally injected with 50 mg/kg of 5-FU five times. NecroX-7 was administered intravenously five times at a dose of 0.3 mg/kg or 3 mg/kg or 30 mg/kg and the results were compared.

[8] = tested on: tongue and intestinal tissues of anticancer drug-induced mucositis mice; test: H&E staining of tongue and intestinal tissues, 5-FU-induced mucositis; type: in vivo
Human tumor cells = test: MTS viability of human tumor cells, NecroX-7 with or without 5-FU; type: cell-based; conditions: 5, 10, 20, 40 μM for 30 minutes; media without 5-FU; after 3 days; FIG. 10
Description: Human tumor cells were treated with NecroX-7 at each concentration ((5 μM, 10 μM, 20 μM, and 40 μM) for 30 minutes, the media were replaced by media with or without 5-FU, which is a chemotherapeutic agent, the cells were loaded on a 96-well plate and, after 3 days, the viability of the cells was measured by MTS assay.

[9] = tested on: necrocytosis caused by oxidative stress and acetaminophen; conditions: reported, Park et al. 2013; cited from earlier work
[10] = tested on: liver injury caused by carbon tetrachloride; conditions: mouse model; reported, Park et al. 2013; cited from earlier work
[11] = tested on: liver injury due to ischemic reperfusion; conditions: reported, Park et al. 2013; cited from earlier work
[12] = NecroX-7 five times at 0.3, 3 or 30 mg/kg, FIG. 1

O=S1(=O)CCN(Cc2cc(NC3CCOCC3)c3[nH]c(-c4ccccc4)cc3c2)CC1 [NecroX-7, (tetrahydropyran-4-yl)-[2-phenyl-5-(1,1-dioxo-thiomorpholine-4-yl)methyl-1H-indole-7-yl]amine]
body weight loss [1, 12]: inhibited body weight loss
viability [1, 12]: increased viability
intestinal function protection (length of the intestines, stool production) ([1]; NecroX-7 total five times, FIG. 2): protected, similar to the intestines of a normal group
H&E histology of intestinal tissue (villi and mucosal destruction) [2]: aspects similar to normal intestinal tissue
cell proliferation (bromodeoxyuridine) in intestinal tissue [3]: vigorous cell proliferation was observed
proliferation of tumor cells (MTT) (tumor cells): suppressed or decreased in most cancer cell lines
radiation-induced cell death in normal cells (MTT) (normal cells): radiation-induced cell death was prevented
effect on IEC-6 cell proliferation (MTS viability) [4]: nearly no effect on cell proliferation
number of live IEC-6 cells (MTS) [5]: significantly increased
mitochondrial ROS (CM-H2ROS staining) [6]: significantly suppressed mitochondrial ROS increased by radiation
body weight loss [7]: suppressed body weight loss
viability [7]: increased viability
H&E histology of tongue and oral mucosa (epidermal atrophy, infiltration of inflammatory and necrotic cells) ([8]; 30 mg/kg of NecroX-7, FIG. 8): aspects similar to normal tissues
H&E histology of intestinal tissue (villi and mucosal destruction) ([8]; NecroX-7-treated group, FIG. 9): aspects similar to normal tongue and intestinal tissues
viability of human tumor cells (MTS), NecroX-7 alone (Human tumor cells): anticancer effect in a concentration-dependent manner
protection against necrocytosis caused by oxidative stress and acetaminophen [9]: protective effect against necrocytosis caused by oxidative stress and acetaminophen
prevention of liver injury caused by carbon tetrachloride [10]: effect of preventing liver injury caused by carbon tetrachloride in a mouse model
inhibition of liver injury due to ischemic reperfusion [11]: effectively inhibits liver injury due to ischemic reperfusion

Source: patent US10272092B2, “Composition for preventing or treating mucositis comprising NecroX as effective ingredient” (THE CATHOLIC UNIVERSITY OF KOREA INDUSTRY-ACADEMIC …, priority 2014, dated 2019)
